The source of these data is ChEMBL document CHEMBL1127014, “Synthesis and evaluation of imidazo[1,5-a][1,4]benzodiazepine esters with high affinities and selectivities at "diazepam-insensitive" benzodiazepine receptors” (J Med Chem, 1993).

The structures appear in SMILES notation. Some results are limits rather than exact numbers.

Experiment [1] deals with GABA-A receptor; anion channel. Description: (§1) Binding affinity for Diazepam-Sensitive fraction of GABA-A benzodiazepine receptors. The class given is protein-complex assay.
In experiment [2] the target is GABA-A receptor; anion channel. Description: Binding affinity for Diazepam-Insensitive fraction of GABA-A benzodiazepine receptors. The class given is protein-complex assay, Rattus norvegicus.
Experiment [3] concerns the target T1, GABA-A receptor; anion channel (Rattus norvegicus) (UniProt O09028+P15431+P18506+P18508+P19969+P20236+P23574+P23576+P28471+P28473+P30191+P62813+P63079+P63138+Q91ZM7+Q9ES14). Description: Selectivity for Diazepam insensitive compared to sensitive GABA-A benzodiazepine receptor fractions. The class given is protein-complex assay.
For experiment [4], the target named is T1, GABA-A receptor; anion channel (Rattus norvegicus). Description: GABA shift ratio at Diazepam sensitive fraction of GABA-A benzodiazepine receptor. The class given is protein-complex assay.
Experiment [5] concerns the target GABA-A receptor; anion channel. The description is as §1. The class given is protein-complex assay, Rattus norvegicus.
In experiment [6] the target is GABA-A receptor; anion channel. Put plainly: Inhibition of Diazepam-Insensitive fraction of GABA-A benzodiazepine receptors. It is filed as protein-complex assay, Rattus norvegicus.
Experiment [7] deals with GABA-A receptor; anion channel. Put plainly: Inhibition of Diazepam-Insensitive faction of GABA-A benzodiazepine receptors. It is filed as protein-complex assay, Rattus norvegicus.

In general, Ki refers to the dissociation constant of the complex between target and ligand, obtained from inhibition or displacement. High values mean lower affinity, low ones higher affinity. For `CCCOC(=O)c1ncn2c1CN(C)C(=O)c1sccc1-2`, the Ki stood at 1.4 nM in experiment [1] and 38 nM in experiment [2]. The Ratio in experiment [3] came out at 27.
For the molecule `CN1Cc2c(C(=O)OC(C)(C)C)ncn2-c2ccc(N=[N+]=[N-])cc2C1=O`, the Ki in experiment [1] stood at 2.1 nM; in experiment [2], 0.43 nM. In experiment [4], the GABA shift was found to be 1.76. In addition, the Ratio in experiment [3] came to 0.2.
In the case of `CC(C)OC(=O)c1ncn2c1CN(C)C(=O)c1cc(Cl)ccc1-2`, the Ki in experiment [1] amounted to 10.5 nM; in experiment [2], 8.8 nM. The GABA shift in experiment [4] worked out at 123. For the same molecule, the Ratio in experiment [3] was found to be 0.8.
In the same order, the values of `CCC(CC)OC(=O)c1ncn2c1CN(C)C(=O)c1cc(Cl)ccc1-2` are 26.9 nM, 123 nM, 158 and 4.6.
Usually IC50 stands for the concentration needed to halve the response being measured. Low readings indicate higher potency, high ones lower potency. In the case of `CN(C)N=Nc1ccc2c(c1)C(=O)N(C)Cc1c(C(=O)OC(C)(C)C)ncn1-2`, in experiment [5], the affinity, expressed as Ki, was 3490 nM. In experiment [6], this molecule yielded an IC50 of over 1000 nM. Also, in experiment [4], the GABA shift came to 1.12.
For `CCOC(=O)c1ncn2c1CN(C)C(=O)c1ccccc1-2` [RO-147437], the Ki amounted to 1.3 nM in experiment [5] and 214 nM in experiment [2]. For the same molecule, in experiment [4], the GABA shift stood at 98. For the same molecule, the Ratio in experiment [3] was 165.
Consider `COC(=O)c1ncn2c1CN(C)C(=O)c1sccc1-2`, for which the figures for the Ki in experiment [1] and in experiment [2] were 0.9 nM and 52 nM, respectively. Moreover, the Ratio in experiment [3] was found to be 57.
With `CN1Cc2c(C(=O)OC(C)(C)C)ncn2-c2ccc(Br)cc2C1=O`, the Ki in experiment [5] turned out to be 16 nM; in experiment [2] it was 2.8 nM. The GABA shift in experiment [4] was found to be 1.06. The Ratio in experiment [3] amounted to 0.17.
For the molecule `CCCOC(=O)c1ncn2c1CN(C)C(=O)c1cc(Cl)ccc1-2`, the Ki in experiment [1] worked out at 24.8 nM; in experiment [2], 33.3 nM. Further, the GABA shift in experiment [4] is 128. The Ratio in experiment [3] was 1.3.
Regarding `CCOC(=O)c1ncn2c1C1CCCN1C(=O)c1cc(Cl)ccc1-2` (stereo not drawn) [RO-145975], the results for the Ki in experiment [1] and in experiment [2] were 72 nM and 53 nM, respectively. Further, the Ratio in experiment [3] amounted to 0.73.
`CN1Cc2c(C(=O)OC(C)(C)C)ncn2-c2ccc(N=C=S)cc2C1=O`: the Ki in experiment [1] was found to be 3.7 nM; in experiment [2], 2.7 nM. Moreover, the GABA shift in experiment [4] is 1.35. Moreover, the Ratio in experiment [3] worked out at 0.73.
For the molecule `COC(=O)c1ncn2c1CN(C)C(=O)c1ccccc1-2`, affinity in experiment [5] was put at a Ki of 6.3 nM. Also, the half-inhibitory concentration (IC50) in experiment [7] is over 1000 nM. Moreover, in experiment [4], the GABA shift amounted to 99.
On to `CCOC(=O)c1ncn2c1CN(C)C(=O)c1cc(Cl)ccc1-2` [Ro-151310], for which, in experiment [5], the Ki is 5.4 nM.
In the case of `CN1Cc2c(C(=O)OC(C)(C)C)ncn2-c2ccc(I)cc2C1=O`, the inhibition constant Ki in experiment [1] was 7 nM; in experiment [2], 1.5 nM. In addition, in experiment [4], the GABA shift turned out to be 1.22. Further, in experiment [3], the Ratio worked out at 0.21.
As to `CN1Cc2c(C(=O)OC(C)(C)C)ncn2-c2ccccc2C1=O`, the Ki in experiment [1] turned out to be 1.1 nM; in experiment [2], 21.2 nM. For the same molecule, the GABA shift in experiment [4] was 105. Moreover, the Ratio in experiment [3] was 19.2.
With `COC(=O)c1ncn2c1CN(C)C(=O)c1cc(Cl)ccc1-2`, in experiment [2], the affinity, expressed as Ki, was 124 nM. That is a sub-micromolar value.
Turning to `CCOC(=O)c1ncn2c1[C@@H]1CCCN1C(=O)c1ccccc1-2`, the values for the Ki in experiment [1] and in experiment [2] were 0.9 nM and 45 nM, respectively. Besides, in experiment [3], the Ratio came out at 50.
On to `CN1Cc2c(C(=O)OC(C)(C)C)ncn2-c2ccsc2C1=O` [RO-194603], for which the Ki was determined as 0.2 nM in experiment [5] and 2.6 nM in experiment [2]. In experiment [3], the Ratio worked out at 13.
For `CN1Cc2c(C(=O)OCC(C)(C)C)ncn2-c2ccc(Cl)cc2C1=O`, the Ki in experiment [5] came out at 499 nM; in experiment [2], 300 nM. The GABA shift in experiment [4] stood at 177. The Ratio in experiment [3] came to 0.67.
With `CN1Cc2c(C(=O)OC(C)(C)C)ncn2-c2ccc(Cl)cc2C1=O`, the Ki in experiment [1] was 4 nM; in experiment [2], 1.7 nM. In experiment [4], the GABA shift amounted to 116. In addition, the Ratio in experiment [3] was 0.4.
As to `CN1Cc2c(C(=O)OC(C)(C)C)ncn2-c2ccc([N+](=O)[O-])cc2C1=O`, the Ki amounted to 14 nM in experiment [5] and 10.8 nM in experiment [2]. Further, the GABA shift in experiment [4] came to 1.46. For the same molecule, the Ratio in experiment [3] was 0.77.
`CN1Cc2c(C(=O)OCCC(C)(C)C)ncn2-c2ccc(Cl)cc2C1=O` came in with a Ki in experiment [1] of 184 nM. The IC50 in experiment [6] was over 1000 nM. The GABA shift in experiment [4] stood at 201.
With `CN1Cc2c(C(=O)OCC3CC3)ncn2-c2ccc(Cl)cc2C1=O`, the figures for the Ki in experiment [5] and in experiment [2] were 9.7 nM and 39.8 nM, respectively. In addition, in experiment [4], the GABA shift came to 176. Further, the Ratio in experiment [3] turned out to be 4.1.
